Patent publication US20110319384A1, “Pharmaceutical Compositions” (priority 2005, published 2011)
Read-outs that look alike come from different tables or passages of the source.

Assays:
[1] = tested on: patients with residual anxiety and depression despite SSRI treatment
[2] = tested on: patients with major depression with prominent anxiety symptoms; assay: Example 33: double-blind randomized 8-week study, quetiapine augmentation of SSRIs/SNRIs
Protocol: Patients were also evaluated according to the CGI-S scale for severity, the Global Assessment scale (GAS) and for adverse events (AEs). Patients were evaluated at baseline and at Weeks 1, 2, 4, 6, and 8. Response was defined as a ≧50% reduction in HAM-D or HAM-A total scores from baseline to Week 8. Remission was defined as a HAM-D or HAM-A total score of 7 or lower at Week 8.
In order to be included in the study, patients had to have a DSM-IV diagnosis of major depression (HAM-D score ≧18), a CGI-S score ≧4, and a HAM-A score ≧14. […] Patients who had: (1) a current CNS disorder; (2) significant hepatic, renal or gastrointestinal impairment; (3) acute, unstable or significant and untreated medical conditions; (4) current substance abuse or dependence; or (5) were at risk for suicide were excluded. Pregnant or breast-feeding women were excluded also.

patients with GAD = conditions: hypothesis to be tested
[3] = tested on: elderly patients with MDD and CV damage
[4] = tested on: patients with refractory depression (RD); assay: Example 29: Cognitive Behavior Therapy (CBT) plus quetiapine or placebo
[5] = tested on: patients with treatment resistant major depression; assay: Example 24: augmentation of antidepressant therapy, quetiapine versus lithium, 56 days
Protocol: The study compared tolerability and efficacy. […] Lithium was initiated at 600 mg/day, and maintained over Week 1 and 2 and subsequently adjusted to attain a level of 0.8-1.2 mmol/L. Lithium levels were taken weekly.
A total of 20 patients were randomized to 1 of the 2 treatment groups. The study population included men and women aged 18-65 years, with a diagnosis of major depression according to DSM-IV, Hamilton Depression Rating Scale (HAM-D)≧20 and a Clinical Global […] (CGI) score ≧4.
Patients were evaluated at baseline and then on days 7, 14, 28, 42, and 56 using the HAM-D, Montgomery-Asberg […] (MADRS), SAS, and Widlocher Psychomotor Retardation Scale.

[6] = add-on to antidepressants, mean dose 300 mg/day
[7] = add-on to antidepressant, mean doses quetiapine 430 mg/day, lithium 825 mg/day

Q: Which “mean HAM-D score after 9 weeks of treatment” value ([1]; added to stable SSRI) does the source give for `OCCOCCN1CCN(C2=Nc3ccccc3Sc3ccccc32)CC1` [quetiapine, 11-[4-[2-(2-hydroxyethoxy)ethyl]-1-piperazinyl]-dibenzo[b,f][1,4]thiazepine] here?
A: The value was “about 6”.

Q: And the “mean HAM-D score at baseline” value ([1]; added to stable SSRI)?
A: The value was “about 20”.

Q: What about the “mean State Anxiety Inventory (SAI) score after 9 weeks of treatment” value ([1]; added to stable SSRI) of the same compound?
A: The value was “about 30”.

Q: What about the “mean State Anxiety Inventory (SAI) score at baseline” value ([1]; added to stable SSRI) of the same compound?
A: Its value is “about 51”.

Q: And the “BARS or SAS scores” value ([1]; in vivo)?
A: Its value is “no clinically relevant changes”.

Q: What about the “discontinuation as a result of an adverse event” value ([1]; in vivo) of the same compound?
A: The value was “no patient discontinued therapy”.

Q: And the “most common side effects” value ([1]; in vivo)?
A: Its value is “Drowsiness, mild dry mouth, and constipation”.

Q: And the “reduction in scores, HAM-A individual subjects analysis” value ([1]; in vivo)?
A: The value was at least 50%.

Q: What about the serious adverse events ([1]; in vivo) of the same compound?
A: Its serious adverse events is “No serious adverse events occurred”.

Q: And the weight gain ([1]; in vivo)?
A: The weight gain was “minimal for all patients but one”.

Q: And the “mean HAM-A score at baseline” value ([2]; added to SSRI/SNRI)?
A: Its value is “about 23”.

Q: What about the “mean HAM-D score at baseline” value ([2]; added to SSRI/SNRI) of the same compound?
A: The value was “about 23”.

Q: What about the “mean HAM-A score after treatment” value ([2]; added to SSRI/SNRI, 8 weeks) of the same compound?
A: The value was “about 10”.

Q: What about the “mean HAM-D score after treatment” value ([2]; added to SSRI/SNRI, 8 weeks) of the same compound?
A: The value was “about 12”.

Q: What about the “mean improvement from baseline in HAM-A scores” value ([2]; added to SSRI/SNRI, 8 weeks, placebo about 5) of the same compound?
A: Its value is “about 13”.

Q: What about the “mean improvement from baseline in HAM-D scores” value ([2]; added to SSRI/SNRI, 8 weeks, placebo about 5, mean dose 202 mg/day) of the same compound?
A: Its value is “about 11”.

Q: And the “CGI-S and GAS assessments” value ([2]; in vivo)?
A: Its value is “significantly more effective than placebo”.

Q: What about the “serious AEs” value ([2]; in vivo) of the same compound?
A: Its value is “no serious AEs were reported”.

Q: What about the “patients with an increase in bodyweight ≧5 kg” value ([2]; no patients in the placebo group) of the same compound?
A: The value was 6 patients.

Q: And the “remission rate as assessed by HAM-A (total score of 7 or lower at Week 8)” value ([2]; placebo 17%)?
A: Its value is 41%.

Q: And the “remission rate as assessed by HAM-D (total score of 7 or lower at Week 8)” value ([2]; placebo 17%)?
A: Its value is 31%.

Q: What about the “response rate as assessed by HAM-A (≧50% reduction to Week 8)” value ([2]; placebo 28%) of the same compound?
A: The value was 62%.

Q: And the “response rate as assessed by HAM-D (≧50% reduction to Week 8)” value ([2]; placebo 28%)?
A: Its value is 48%.

Q: What about the “Adverse events of nausea or vomiting” value (patients with GAD; compared to escitalopram) of the same compound?
A: The value was “lower levels of nausea and”.

Q: And the “Incidence of withdrawals due to adverse events” value (patients with GAD; compared to escitalopram)?
A: The value was “Quetiapine has similar”.

Q: And the “Sexual dysfunction: change from randomization in CSFQ total score at Day 57” value (patients with GAD; compared to escitalopram)?
A: The value was “lower levels of sexual”.

Q: And the “Somnolence: severity of AEs, time of first instance, withdrawals due to AE of somnolence” value (patients with GAD; compared to placebo)?
A: Its value is “generally mild, occurs early in”.

Q: And the “Change from randomization in HAM-A total score, HAM-A psychic cluster, HAM-A somatic cluster and CGI-S score at Day 4” value (patients with GAD; compared to placebo, Day 4)?
A: The value was “anti-anxiety effect by Day 4”.

Q: What about the “Change from randomization in MADRS total score at Day 57” value (patients with GAD; depressive symptoms in GAD, vs placebo) of the same compound?
A: Its value is “Quetiapine is more effective”.

Q: And the “Adverse events related to discontinuation; change in Discontinuation-Emergent Signs and Symptoms total score at Day 64 and Day 71” value (patients with GAD; discontinuation symptoms)?
A: Its value is “Quetiapine does not have”.

Q: What about the “Change from normal to Clinically Important in Physical Examinations; Laboratory values; Vital signs; ECGs” value (patients with GAD; once daily up to 300 mg/day) of the same compound?
A: The value was 300 mg/day is safe and well.

Q: What about the “Change from randomization in Q-les-Q Item 15 (Satisfaction with medication) at Day 57” value (patients with GAD; patient satisfaction, vs placebo) of the same compound?
A: The value was “Quetiapine is more effective”.

Q: What about the “Change from randomization in Q-les-Q total score and Q-les-Q Item 16 (Overall life satisfaction) at Day 57” value (patients with GAD; quality of life, vs placebo) of the same compound?
A: The value was “Quetiapine is more effective”.

Q: And the “HAM-A Response (decrease from randomization total score of = 50%) at Day 4” value (patients with GAD; response rate vs placebo, Day 4)?
A: Its value is “Quetiapine has a greater”.

Q: What about the “HAM-A Response (decrease from randomization total score of = 50%) at Day 57” value (patients with GAD; response rate vs placebo, Day 57) of the same compound?
A: The value was “Quetiapine has a greater”.

Q: And the “Adverse events of nausea or vomiting” value (patients with GAD; vs placebo)?
A: Its value is “placebo levels of nausea and”.

Q: What about the “Adverse events related to EPS (including akathisia); change in SAS and BARS scores at Day 57” value (patients with GAD; vs placebo) of the same compound?
A: Its value is “placebo levels of EPS”.

Q: And the “HAM-A Remission (HAM-A total score = 7) at Day 57” value (patients with GAD; vs placebo)?
A: The value was “Quetiapine is better than”.

Q: And the “Sexual dysfunction: change from randomization in CSFQ total score at Day 57” value (patients with GAD; vs placebo)?
A: Its value is “placebo levels of sexual”.

Q: And the “Change from randomization in CGI-S score, CGI-I (much or very much improved), HAM-A psychic and somatic clusters at Day 57” value (patients with GAD; vs placebo, across anxiety symptoms)?
A: The value was “Quetiapine is more effective”.

Q: What about the “mean CGI-S score after 6 months” value ([3]; add-on to antidepressants) of the same compound?
A: Its value is “about 5”.

Q: What about the “mean CGI-S score at baseline” value ([3]; add-on to antidepressants) of the same compound?
A: The value was “about 6”.

Q: What about the “mean HAM-D score after 6 months” value [3, 6] of the same compound?
A: The value was “about 15”.

Q: And the “mean HAM-D score at baseline” value [3, 6]?
A: Its value is “about 27”.

Q: What about the “discontinuation of the study” value ([3]; in vivo) of the same compound?
A: The value was “No patients discontinued the study”.

Q: And the side effects reported ([3]; the only side effects reported)?
A: Its side effects reported is “Sedation and drowsiness”.

Q: What about the “lack of response drop-outs” value ([4]; 50% drop-out rate in the CBT+placebo arm) of the same compound?
A: Its value is “no lack of response drop-outs”.

Q: What about the “all primary efficacy measures (MADRS, HAM-D)” value ([4]; CBT 12 weekly sessions, quetiapine up to 200 mg twice a day, no significant reductions with CBT+placebo) of the same compound?
A: Its value is “significantly reduced”.

Q: What about the “most common side effect” value ([4]; in vivo) of the same compound?
A: The value was “Somnolence”.

Q: What about the serious adverse events ([4]; in vivo) of the same compound?
A: The serious adverse events was “No serious adverse events were observed”.

Q: What about the “study survivability (at least 4 or more CBT sessions prior to withdrawal)” value ([4]; in vivo) of the same compound?
A: Its value is “increased study survivability”.

Q: What about the tolerability ([4]; in vivo) of the same compound?
A: Its tolerability is “generally well-tolerated”.

Q: What about the “Widlocher Psychomotor Retardation Scale mean baseline score” value ([5]; add-on to antidepressant) of the same compound?
A: The value was “about 30”.

Q: What about the “Widlocher Psychomotor Retardation Scale mean score after treatment” value ([5]; add-on to antidepressant) of the same compound?
A: Its value is “about 7”.

Q: What about the “mean MADRS score after Day 7 up to Day 56 (end value)” value ([5]; add-on to antidepressant) of the same compound?
A: The value was “about 8”.

Q: What about the “mean MADRS score, start value 'After Day 7'” value ([5]; add-on to antidepressant) of the same compound?
A: The value was “about 38”.

Q: And the “mean HAM-D score at Day 56” value [5, 7]?
A: Its value is “about 5”.

Q: And the “mean HAM-D score, start value of 'From Day 7 to 56'” value [5, 7]?
A: The value was “about 26”.

Q: What about the “patients in remission (HAM-D)” value ([5]; after 56 days) of the same compound?
A: The value was “about 80%”.

Q: And the “patients who responded (MADRS)” value ([5]; after 56 days)?
A: Its value is “Eighty”.

Q: And the “patients who responded to treatment (HAM-D)” value ([5]; after 56 days)?
A: The value was “about 80%”.

Q: And the “patients who achieved remission (MADRS)” value ([5]; at 56 days)?
A: The value was “Eighty”.

Q: And the “SAS scale scores versus baseline” value ([5]; in vivo)?
A: Its value is “decreased scores from baseline”.
